Eleven compounds from ChEMBL document CHEMBL3044833, “Anticonvulsant activity of 3,5-dimethylpyrazole derivatives in animal models” (Med Chem Res, 2011) can be followed below.

Activity calls are given as the source filed them. No cut-off for these calls is given here.

Data set [1] relates to Mus musculus. Nature of the data set: Anticonvulsant activity in Mus musculus Balb/c (mouse) assessed as increase in latency to seizure at 100 mg/kg, ip pretreated 30 min before pentylenetetrazol challenge by pentylenetetrazol test. It counts as functional, organism-based. On the set-up: dose 100 mg/kg.
For data set [2], the system named is Mus musculus. Nature of the data set: Anticonvulsant activity in Mus musculus Balb/c (mouse) assessed as inhibition of pentylenetetrazol-induced mortality at 100 mg/kg, ip pretreated 30 min before pentylenetetrazol challenge by pentylenetetrazol test. It counts as functional, organism-based. On the set-up: dose 100 mg/kg.
Data set [3] has as its system Mus musculus. The data set can be described thus: Anticonvulsant activity in Mus musculus Balb/c (mouse) assessed as decrease in severity of seizure at 100 mg/kg, ip pretreated 30 min before pentylenetetrazol challenge by pentylenetetrazol test. Format: functional, organism-based. On the set-up: dose 100 mg/kg.
Data set [4] has as its system Mus musculus. The data set can be described thus: Anticonvulsant activity in Mus musculus Balb/c (mouse) assessed as effect on latency of tonic hind limb extension at 100 mg/kg, ip measured after 30 min by maximal electroshock seizure test. It counts as functional, organism-based. On the set-up: dose 100 mg/kg. Conditions: Hindlimb.
The test system of data set [5] is Mus musculus. The data set can be described thus: Anticonvulsant activity in Mus musculus Balb/c (mouse) assessed as effect on maximal electroshock-induced mortality rate 100 mg/kg, ip measured after 30 min. Format: functional, organism-based. On the set-up: dose 100 mg/kg. For orientation: The maximal electroshock test induces tonic seizures with an electrical stimulus.

For data set [6], the system named is Mus musculus. The data set can be described thus: Anticonvulsant activity in Mus musculus Balb/c (mouse) assessed as decrease in duration of tonic hind limb extension at 100 mg/kg, ip measured after 30 min by maximal electroshock seizure test. Format: functional, organism-based. More on the design: dose 100 mg/kg. Conditions: Hindlimb.
The subject of data set [7] is Mus musculus. Nature of the data set: Anticonvulsant activity in Mus musculus Balb/c (mouse) assessed as increase in latency to seizure at 150 to 200 mg/kg, ip pretreated 30 min before pentylenetetrazol challenge by pentylenetetrazol test. It counts as functional, organism-based.
In data set [8] the test system is Mus musculus. Nature of the data set: Anticonvulsant activity in Mus musculus Balb/c (mouse) assessed as effect on severity of seizure at 150 to 200 mg/kg, ip pretreated 30 min before pentylenetetrazol challenge by pentylenetetrazol test. Format: functional, organism-based.
The subject of data set [9] is Mus musculus. The data set can be described thus: Anticonvulsant activity in Mus musculus Balb/c (mouse) assessed as inhibition of pentylenetetrazol-induced mortality at 150 to 200 mg/kg, ip pretreated 30 min before pentylenetetrazol challenge by pentylenetetrazol test. Format: functional, organism-based.
The subject of data set [10] is Mus musculus. Nature of the data set: Toxicity in Mus musculus Balb/c (mouse) assessed as duration of spike-wave discharges at 150 mg/kg, ip measured for 2 hr by EEG recordings (reference value: 359.8 +/- 33.5 sec). It counts as organism-based. More on the design: dose 150 mg/kg, route intraperitoneal. Conditions: in vivo.
Data set [11] deals with Mus musculus. Nature of the data set: Toxicity in Mus musculus Balb/c (mouse) assessed as duration of spike-wave discharges at 100 mg/kg, ip measured for 2 hr by EEG recordings (reference value: 359.8 +/- 33.5 sec). Format: organism-based. On the set-up: dose 100 mg/kg, route intraperitoneal. Conditions: in vivo.
The test system of data set [12] is Mus musculus. The data set can be described thus: Anticonvulsant activity in Mus musculus Balb/c (mouse) assessed as decrease in severity of seizure at 150 to 200 mg/kg, ip pretreated 30 min before pentylenetetrazol challenge by pentylenetetrazol test. It counts as functional, organism-based.

As to `Cc1n[nH]c(C)c1NC(=O)c1cccnc1`, the outcome with Mus musculus [1] was Active. Moreover, the inhibition entry in the data set on Mus musculus [2] and in the data set on Mus musculus [3] was “Active” each time.

Turning to `Cc1nn(C(=O)c2ccc(F)cc2)c(C)c1NC(=O)c1ccc(F)cc1`, the outcome with Mus musculus [1] was Active. Besides, the result in the data set on Mus musculus [4] and with Mus musculus [5] was inactive. The inhibition entry in the data set on Mus musculus [6], in the data set with Mus musculus [2] and in the data set on Mus musculus [3] was “Active” in each case.

`COc1ccc(C(=O)Nc2c(C)nn(C(=O)c3ccc(OC)cc3)c2C)cc1`: the outcome in the data set with Mus musculus [1] and with Mus musculus [7] was Active. Also, the inhibition result in the data set with Mus musculus [2] and in the data set with Mus musculus [3] was “Active” in each case. Further, the result in the data set on Mus musculus [8] was inactive. Further, the inhibition entry in the data set with Mus musculus [9] is “inactive”.

`Cc1n[nH]c(C)c1/N=C/c1ccc(O)cc1`: the outcome in the data set on Mus musculus [1] was Active. Further, the inhibition result in the data set with Mus musculus [2] and in the data set on Mus musculus [3] was “Active” each time.

Consider `CCC1(C)CC(=O)NC1=O` (configuration not stated), for which the outcome with Mus musculus [1] was Active. The inhibition entry in the data set with Mus musculus [2] and in the data set with Mus musculus [3] was “Active” each time.

Take `Cc1nn(C(=O)c2ccc(Cl)cc2)c(C)c1NC(=O)c1ccc(Cl)cc1`: the result in the data set on Mus musculus [1] was Active. For the same compound, the inhibition result in the data set with Mus musculus [2] and in the data set with Mus musculus [3] was “Active” each time.

As for `Cc1nn(C(=O)c2c(Cl)cccc2Cl)c(C)c1NC(=O)c1c(Cl)cccc1Cl`, the outcome in the data set with Mus musculus [1] and with Mus musculus [7] was Active. Further, the inhibition result in the data set on Mus musculus [2], in the data set with Mus musculus [3], with Mus musculus [12] and in the data set with Mus musculus [9] was “Active” each time. The Time with Mus musculus [10] is given as 337.5 s; with Mus musculus [11], 300 s.

For `Cc1ccc(C(=O)Nc2c(C)nn(C(=O)c3ccc(C)cc3)c2C)cc1`, the result with Mus musculus [1] was Active. Further, the inhibition result in the data set with Mus musculus [2] and in the data set with Mus musculus [3] was “Active” in each case.

As for `Cc1n[nH]c(C)c1/N=C/c1c(Cl)cccc1Cl`, the outcome in the data set on Mus musculus [1] was Active. The outcome in the data set with Mus musculus [4] and in the data set on Mus musculus [5] was inactive. Besides, the inhibition entry in the data set on Mus musculus [6], with Mus musculus [2] and in the data set with Mus musculus [3] was “Active” throughout.

`Cc1n[nH]c(C)c1/N=C/c1ccccc1O`: in the data set with Mus musculus [1], the result was Active. The inhibition result in the data set on Mus musculus [2] and with Mus musculus [3] was “Active” each time.

`Cc1n[nH]c(C)c1NC(=O)c1ccncc1`: the result in the data set on Mus musculus [1] was Active. The inhibition result with Mus musculus [2] and in the data set on Mus musculus [3] was “Active” in each case.
